Results on three compounds are retold here after ChEMBL document CHEMBL1137410, “Using fragment cocktail crystallography to assist inhibitor design of Trypanosoma brucei nucleoside 2-deoxyribosyltransferase” (2006).

Structures are written as SMILES. pEC50: −log10 of the molar value.

The experiment concerns Trypanosoma brucei brucei. The experiment can be described thus: Inhibition of Trypanosoma brucei brucei growth. The class given is functional. The settings on record: read-out: ED50 (the source's name).
Turning to `Cn1c(=O)ccc2ccccc21`, the pEC50 was 3.38.
Next, `Nc1cccc2cnccc12`: 3.60; `CCc1ccccc1CO`: 2.87.
